Laboratory results reported in US7183276B2, “Azole compounds” (Takeda Pharmaceutical Company Limited, priority 2002, dated 2007).

Row | melting point | SMILES
1 | 209 to 210 °C | CCN(CC)C(=O)Cc1ccc(NC(=O)CCc2oc(-n3cnc4ccccc43)nc2-c2ccc(Cl)cc2)cc1 [Example 106, 2-[4-({3-[2-(1H-benzimidazol-1-yl)-4-(4-chlorophenyl)-5-oxazolyl]propanoyl}amino)phenyl]-N,N-diethylacetamide]
2 | 170 to 171 °C | COC(=O)c1ccc(NC(=O)CCCc2oc(-c3ccccc3)nc2-c2ccc(Cl)cc2)cc1 [Example 50, 4-[4-(4-chlorophenyl)-2-phenyl-5-oxazolyl]-N-[4-(methoxycarbonyl)phenyl]butanamide]
3 | 152 to 153 °C | CCOP(=O)(Cc1ccc(NC(=O)CCCc2oc(-c3ccccc3)nc2-c2ccc(Cl)cc2)cc1)OCC
4 | 214 to 216 °C | O=C(CCc1oc(-n2cnc3ccccc32)nc1-c1ccc(Cl)cc1)NCc1ccc(-c2ccccc2)cc1 [Example 153, 3-[2-(1H-benzimidazol-1-yl)-4-(4-chlorophenyl)-5-oxazolyl]-N-(4-phenylbenzyl)propionamide]
5 | 198 to 200 °C | COC(=O)c1ccc(NC(=O)CCc2oc(-c3ccccc3)nc2-c2ccc(Cl)cc2)cc1 [Example 42, 3-[4-(4-chlorophenyl)-2-phenyl-5-oxazolyl]-N-[4-(methoxycarbonyl)phenyl]propionamide]
6 | 216 to 217 °C | N#Cc1ccc(NC(=O)CCc2oc(-n3cnc4ccccc43)nc2-c2ccc(Cl)cc2)cc1 [Example 112, 3-[2-(1H-benzimidazol-1-yl)-4-(4-chlorophenyl)-5-oxazolyl]-N-(4-cyanophenyl)propionamide]
7 | 161 to 162 °C | CCOP(=O)(Cc1ccc(NC(=O)CCc2oc(Cc3ccccc3)nc2-c2ccc(Cl)cc2)cc1)OCC
8 | 249 to 250 °C | CCOP(=O)(OCC)c1ccc(NC(=O)CCc2oc(-n3cnc4ccccc43)nc2-c2ccc(Cl)cc2)cc1
9 | 274 to 275 °C | NC(=O)c1ccc(NC(=O)/C=C/c2oc(-c3ccccc3)nc2-c2ccc(Cl)cc2)cc1 [Example 68, 4-({(2E)-3-[4-(4-chlorophenyl)-2-phenyl-5-oxazolyl]propenoyl}amino)benzamide]
10 | 249 to 250 °C | COC(=O)c1ccc(NC(=O)CCc2oc(-n3cnc4ccccc43)nc2-c2ccc(Cl)cc2)cc1 [Example 91, 3-[2-(1H-benzimidazol-1-yl)-4-(4-chlorophenyl)-5-oxazolyl]-N-[4-(methoxycarbonyl)phenyl]propionamide]
11 | 95 to 96 °C | CCOP(=O)(Cc1ccc(NC(=O)CCc2oc(-n3cnc4ccccc43)nc2-c2ccc(F)cc2)cc1)OCC
12 | 168 to 169 °C | NC(=O)CCCc1oc(-c2ccccc2)nc1-c1ccc(Cl)cc1 [Example 52, 4-[4-(4-chlorophenyl)-2-phenyl-5-oxazolyl]butanamide]
13 | 196 to 197 °C | CCOP(=O)(Cc1ccc(NC(=O)CCc2oc(-n3ccnc3)nc2-c2ccc(Cl)cc2)cc1)OCC
14 | 150 to 151 °C | CCOP(=O)(Cc1ccc(NC(=O)/C=C/c2sc(-n3cnc4ccccc43)nc2C)cc1)OCC
15 | 150 to 151 °C | CCOP(=O)(Cc1ccc(NC(=O)CCc2sc(-n3cnc4ccccc43)nc2-c2ccc(Cl)cc2)cc1)OCC
16 | 127 to 128 °C | CCOP(=O)(Cc1ccc(NC(=O)CCCc2oc(N3CCCC3)nc2-c2ccc(Cl)cc2)cc1)OCC
17 | 198 to 199 °C | CCOP(=O)(Cc1ccc(NC(=O)/C=C/c2sc(-n3cnc4ccccc43)nc2C(C)C)cc1)OCC
18 | 140 to 141 °C | CCOP(=O)(Cc1ccc(NC(=O)CCCc2sc(-n3cnc4ccccc43)nc2-c2ccc(Cl)cc2)cc1)OCC
19 | 158 to 159 °C | CCOP(=O)(Cc1ccc(NC(=O)CCc2oc(-n3ccnc3C)nc2-c2ccc(Cl)cc2)cc1)OCC
20 | 218 to 219 °C | Cc1ccc(CNC(=O)CCc2oc(-n3cnc4ccccc43)nc2-c2ccc(Cl)cc2)c(C)c1 [Example 175, 3-[2-(1H-benzimidazol-1-yl)-4-(4-chlorophenyl)-5-oxazolyl]-N-(2,4-dimethylbenzyl)propionamide]
21 | 294 to 295 °C | O=C(CCc1sc(-c2ccccc2)nc1-c1ccc(Cl)cc1)Nc1ccc(C(=O)O)cc1 [Example 64, 4-({3-[4-(4-chlorophenyl)-2-phenyl-5-thiazolyl]propanoyl}amino)benzoic acid]
22 | 133 to 134 °C | CN1CCC(N(C)C(=O)CCc2oc(-n3cnc4ccccc43)nc2-c2ccc(Cl)cc2)CC1 [Example 193, 3-[2-(1H-benzimidazol-1-yl)-4-(4-chlorophenyl)-5-oxazolyl]-N-methyl-N-(1-methyl-4-piperidinyl)propionamide]
23 | 188 to 189 °C | O=C(CCc1oc(-n2cnc3ccccc32)nc1-c1ccc(Cl)cc1)NCc1ccc(F)c(Cl)c1 [Example 173, 3-[2-(1H-benzimidazol-1-yl)-4-(4-chlorophenyl)-5-oxazolyl]-N-(3-chloro-4-fluorobenzyl)propionamide]
24 | 233 to 234 °C | COC(=O)Cc1csc(NC(=O)CCc2oc(-n3cnc4ccccc43)nc2-c2ccc(Cl)cc2)n1 [Example 129, 3-[2-(1H-benzimidazol-1-yl)-4-(4-chlorophenyl)-5-oxazolyl]-N-{4-[(methoxycarbonyl)methyl]-2-thiazolyl}propionamide]

Row | melting point | SMILES
25 | 193 to 194 °C | Cc1ccc(CNC(=O)CCc2oc(-c3ccccc3)nc2-c2ccc(Cl)cc2)cc1 [Example 166, 3-[4-(4-chlorophenyl)-2-phenyl-5-oxazolyl]-N-(4-methylbenzyl)propionamide]
26 | 108 to 109 °C | CCCc1nc(-c2ccc(Cl)cc2)c(CCC(=O)Nc2ccc(CP(=O)(OCC)OCC)cc2)o1
27 | 205 to 209 °C | CCOP(=O)(Cc1ccc(NC(=O)CCCc2oc(N3CCN(n4c(=O)[nH]c5ccccc54)CC3)nc2-c2ccc(Cl)cc2)cc1)OCC
28 | 156 to 157 °C | O=C(CCc1oc(-n2cnc3ccccc32)nc1-c1ccc(Cl)cc1)NCCOc1ccccc1 [Example 162, 3-[2-(1H-benzimidazol-1-yl)-4-(4-chlorophenyl)-5-oxazolyl]-N-(2-phenoxyethyl)propionamide]
29 | ≥ 300 °C (dec.) | NC(=O)c1ccc(NC(=O)CCc2sc(-c3ccccc3)nc2-c2ccc(Cl)cc2)cc1 [Example 67, 4-({3-[4-(4-chlorophenyl)-2-phenyl-5-thiazolyl]propanoyl}amino)benzamide]
30 | 154 to 155 °C | CCOP(=O)(Cc1ccc(NC(=O)Cc2sc(-n3cnc4ccccc43)nc2-c2ccc(Cl)cc2)cc1)OCC
31 | 91 to 92 °C | CCOP(=O)(Cc1ccc(NC(=O)CCc2oc(-n3nnc4ccccc43)nc2-c2ccc(Cl)cc2)cc1)OCC
32 | 226 to 227 °C | O=C(CCc1oc(-n2cnc3ccccc32)nc1-c1ccc(Cl)cc1)Nc1ccccc1 [Example 120, 3-[2-(1H-benzimidazol-1-yl)-4-(4-chlorophenyl)-5-oxazolyl]-N-phenylpropionamide]
33 | 191 to 192 °C | CCOP(=O)(OCC)C(OC)c1ccc(NC(=O)CCc2oc(-n3cnc4ccccc43)nc2-c2ccc(Cl)cc2)cc1 (centres unmarked)
34 | 215 to 216 °C | COc1ccc(-c2nc(-c3ccc(Cl)cc3)c(CCC(N)=O)o2)cc1 [Example 28, 3-[4-(4-chlorophenyl)-2-(4-methoxyphenyl)-5-oxazolyl]propionamide]
35 | 196 to 198 °C | O=C(CCc1oc(-n2cnc3ccccc32)nc1-c1ccc(Cl)cc1)NCc1ccc(F)cc1Cl [Example 168, 3-[2-(1H-benzimidazol-1-yl)-4-(4-chlorophenyl)-5-oxazolyl]-N-(2-chloro-4-fluorobenzyl)propionamide]
36 | 139 to 140 °C | NC(=O)CCc1oc(Oc2ccccc2)nc1-c1ccc(Cl)cc1 [Example 38, 3-[4-(4-chlorophenyl)-2-phenoxy-5-oxazolyl]propionamide]
37 | 136 to 137 °C | O=C(CCc1oc(-n2cnc3ccccc32)nc1-c1ccc(Cl)cc1)N1CCS(=O)(=O)C1 [Example 344, 3-{3-[2-(1H-benzoimidazol-1-yl)-4-(4-chlorophenyl)-5-oxazolyl]propanoyl}thiazolidine-1,1-dioxide]
38 | 141 to 142 °C | CCOP(=O)(Cc1ccc(NC(=O)CCc2oc(-c3ccc(OC)cc3)nc2-c2ccc(Cl)cc2)cc1)OCC
39 | 148 to 149 °C | CCOP(=O)(Cc1ccc(NC(=O)CCc2oc(-c3ccc(F)cc3)nc2-c2ccc(Cl)cc2)cc1)OCC
40 | 243 to 244 °C | O=C(CCCc1oc(-n2cnc3ccccc32)nc1-c1ccc(Cl)cc1)Nc1ccc(S(=O)(=O)Nc2nccs2)cc1 [Example 104, 4-[2-(1H-benzimidazol-1-yl)-4-(4-chlorophenyl)-5-oxazolyl]-N-(4-{[(2-thiazolyl)amino]sulfonyl}phenyl)butanamide]
41 | 202 to 203 °C | CCOP(=O)(Cc1ccc(NC(=O)CCc2sc(NC(=S)NCc3ccccc3)nc2-c2ccc(Cl)cc2)cc1)OCC
42 | 218 to 219 °C | Cc1ccc(C)c(CNC(=O)CCc2oc(-n3cnc4ccccc43)nc2-c2ccc(Cl)cc2)c1 [Example 181, 3-[2-(1H-benzimidazol-1-yl)-4-(4-chlorophenyl)-5-oxazolyl]-N-(2,5-dimethylbenzyl)propionamide]
43 | 162 to 163 °C | NC(=O)CCc1oc(Sc2ccccn2)nc1-c1ccc(Cl)cc1 [Example 36, 3-[4-(4-chlorophenyl)-2-(2-pyridinylsulfanyl)-5-oxazolyl]propionamide]
44 | 187 to 188 °C | N#CCc1ccc(NC(=O)CCCCc2sc(-n3cnc4ccccc43)nc2-c2ccc(Cl)cc2)cc1 [Example 223, 5-[2-(1H-benzimidazol-1-yl)-4-(4-chlorophenyl)-5-thiazolyl]-N-[4-(cyanomethyl)phenyl]pentanamide]
45 | 182 to 184 °C | CN(Cc1ccc(NC(=O)CCc2oc(-n3cnc4ccccc43)nc2-c2ccc(Cl)cc2)cc1)C1CCOCC1 [Example 87, 3-[2-(1H-benzimidazol-1-yl)-4-(4-chlorophenyl)-5-oxazolyl)-N-(4-{[N-methyl-N-(4-tetrahydropyranyl)amino]methyl}phenyl)propionamide]
46 | 157 to 158 °C | O=C(CCc1oc(-n2cnc3ccccc32)nc1-c1ccccc1)N1CCC(O)CC1 [Example 247, 1-{3-[2-(1H-benzoimidazol-1-yl)-4-phenyl-5-oxazolyl]propanoyl}-4-piperidinol]
47 | 150 to 151 °C | CCCc1nc(-c2ccc(Cl)cc2)c(CCC(N)=O)o1 [Example 29, 3-[4-(4-chlorophenyl)-2-propyl-5-oxazolyl]propionamide]
